Target: PD-L1 His protein / PD-1 Fc protein (Homo sapiens, UniProt Q9NZQ7)
Test: HTRF Assay (PD-1/PD-L1 interaction)
Format: binding
Conditions: PD-L1 His 6 nM, PD-1 Fc 6 nM
Method in brief: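 HTRF: PD-L1 His (6 nM final), compound (3-fold dilutions, 20 μM to 0.001 μM final) and PD-1 Fc (6 nM final) preincubated 15 min at room temperature. Anti-human IgG-XL665 and anti-6HIS Tb cryptate (mixed at 6.7 nM and 0.35 nM) then added for 1 h at room temperature before reading.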

Chain of PD-L1 His protein / PD-1 Fc protein (Q9NZQ7 19-238 limits assumed): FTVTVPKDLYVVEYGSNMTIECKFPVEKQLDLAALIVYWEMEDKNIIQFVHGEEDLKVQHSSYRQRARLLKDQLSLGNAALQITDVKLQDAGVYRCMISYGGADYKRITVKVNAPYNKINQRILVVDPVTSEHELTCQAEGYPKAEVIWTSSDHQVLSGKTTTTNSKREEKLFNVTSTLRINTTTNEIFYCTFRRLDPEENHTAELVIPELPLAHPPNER

Question: Which IC50 does the source give for `COc1nc(-c2cccc(-c3cccc(-c4ccn5c(=O)c(CN6CCC(CO)(CO)C6)cnc5c4)c3Cl)c2Cl)ccc1CNC[C@@H]1CCC(=O)N1` [Example 328, (S)-3-((3,3-Bis(hydroxymethyl)pyrrolidin-1-yl)methyl)-8-(2,2′-dichloro-3′-(6-methoxy-5-((((5-oxopyrrolidin-2-yl)methyl)amino)methyl)pyridin-2-yl)-[1,1′-biphenyl]-3-yl)-4H-pyrido[1,2-a]pyrimidin-4-one] here?
Answer: 0.1 nM

Question: With `COc1nc(-c2cccc(-c3cccc(-c4ccn5c(=O)c(CNCCCC(F)(F)C(F)(F)F)cnc5c4)c3Cl)c2Cl)ccc1CNC[C@@H]1CCC(=O)N1` [Example 223, (S)-8-(2,2′-dichloro-3′-(6-methoxy-5-((((5-oxopyrrolidin-2-yl)-methyl)-amino)methyl)-pyridin-2-yl)-[1,1′-biphenyl]-3-yl)-3-(((4,4,5,5,5-pentafluoropentyl)amino)-methyl)-4H-pyrido[1,2-a]pyrimidin-4-one] as the compound, how does the IC50 read?
Answer: 10 nM

Question: How did the IC50 turn out when `COc1nc(-c2cccc(-c3cccc(-c4cc5c(=O)n(C)c(CNCCO)nn5c4)c3Cl)c2Cl)cc(Cl)c1CNC[C@@H]1CCC(=O)N1` [Example 491, (S)-6-(2,2′-Dichloro-3′-(4-chloro-6-methoxy-5-((((5-oxopyrrolidin-2-yl)methyl)amino)methyl)pyridin-2-yl)-[1,1′-biphenyl]-3-yl)-2-(((2-hydroxyethyl)amino)methyl)-3-methylpyrrolo[2,1-f][1,2,4]triazin-4(3H)-one] was run?
Answer: 0.7 nM

Question: `COc1nc(-c2cccc(-c3cccc(-c4ccn5c(=O)c(CN6CCC[C@H]6C(=O)O)cnc5c4)c3Cl)c2Cl)ccc1CNC[C@@H]1CCC(=O)N1` [Example 128, ((8-(2,2′-Dichloro-3′-(6-methoxy-5-(((((S)-5-oxopyrrolidin-2-yl)methyl)amino)methyl)pyridin-2-yl)-[1,1′-biphenyl]-3-yl)-4-oxo-4H-pyrido[1,2-a]pyrimidin-3-yl)methyl)-L-proline] was tested. Which IC50 did it give?
Answer: 0.2 nM

Question: For `COc1nc(-c2cccc(-c3cccc(-c4ccn5c(=O)c(CNCC(=O)O)cnc5c4)c3Cl)c2Cl)ccc1CNC[C@@H]1CCC(=O)N1` [Example 189, (S)-((8-(2,2′-Dichloro-3′-(6-methoxy-5-((((5-oxopyrrolidin-2-yl)methyl)amino)methyl)pyridin-2-yl)-[1,1′-biphenyl]-3-yl)-4-oxo-4H-pyrido[1,2-a]pyrimidin-3-yl)methyl)glycine], which IC50 is on record?
Answer: 0.1 nM

Question: With `COc1nc(-c2cccc(-c3cccc(-c4ccn5c(=O)c(CN6CCN7C(=O)CCC7C6)cnc5c4)c3Cl)c2Cl)ccc1CNC[C@@H]1CCC(=O)N1` (stereo partly drawn) [Example 152, 8-(2,2′-Dichloro-3′-(6-methoxy-5-(((((S)-5-oxopyrrolidin-2-yl)methyl)amino)methyl)pyridin-2-yl)-[1,1′-biphenyl]-3-yl)-3-((6-oxohexahydropyrrolo[1,2-a]pyrazin-2(1H)-yl)methyl)-4H-pyrido[1,2-a]pyrimidin-4-one] as the compound, how does the IC50 read?
Answer: 3.1 nM

Question: How did the IC50 turn out when `COc1cc(-c2cccc(-c3cccc(-c4ccn5c(=O)c(CNC[C@@H]6CCC(=O)N6)cnc5c4)c3C)c2Cl)ncc1CNC[C@@H]1CCC(=O)N1` [Example 77, 8-[3-[2-Chloro-3-[4-methoxy-5-[[[(2S)-5-oxopyrrolidin-2-yl]methylamino]methyl]-2-pyridyl]phenyl]-2-methyl-phenyl]-3-[[[(2S)-5-oxopyrrolidin-2-yl]methylamino]methyl]pyrido[1,2-a]pyrimidin-4-one] was run?
Answer: 6.3 nM

Question: How did the IC50 turn out when `COc1nc(-c2cccc(-c3cccc(-c4ccn5c(Cl)c(CNC[C@@H]6CCC(=O)N6)nc5c4)c3Cl)c2Cl)ccc1CNC[C@@H]1CCC(=O)N1` [Example 382, (5S)-5-[[[6-[2-chloro-3-[2-chloro-3-[3-chloro-2-[[[(2S)-5-oxopyrrolidin-2-yl]methylamino]methyl]imidazo[1,2-a]pyridin-7-yl]phenyl]phenyl]-2-methoxy-3-pyridyl]methylamino]methyl]pyrrolidin-2-one] was run?
Answer: 110 nM

Question: Which IC50 does the source give for `COc1nc(-c2cccc(-c3cccc(-c4ccn5c(=O)c(CNC[C@@H](C)O)cnc5c4)c3Cl)c2Cl)ccc1CNC[C@@H](C)O` [Example 186, 8-(2,2′-Dichloro-3′-(5-((((R)-2-hydroxypropyl)amino)methyl)-6-methoxypyridin-2-yl)-[1,1′-biphenyl]-3-yl)-3-((((R)-2-hydroxypropyl)amino)methyl)-4H-pyrido[1,2-a]pyrimidin-4-one] here?
Answer: 6.4 nM

Question: Which IC50 does the source give for `COc1nc(-c2cccc(-c3cccc(-c4cc5c(=O)n(C)c(CNC[C@H](C)OC)nn5c4)c3Cl)c2Cl)ccc1CNC[C@@H]1CCC(=O)N1` [Example 475, 6-[2-Chloro-3-[2-chloro-3-[6-methoxy-5-[[[(2S)-5-oxopyrrolidin-2-yl]methylamino]methyl]-2-pyridyl]phenyl]phenyl]-2-[[[(2S)-2-methoxypropyl]amino]methyl]-3-methyl-pyrrolo[2,1-f][1,2,4]triazin-4-one] here?
Answer: 530 nM

Question: For `COc1nc(-c2cccc(-c3cccc(-c4ccn5c(=O)c(CNC[C@@H]6CCC(=O)N6)cnc5c4)c3Cl)c2Cl)ccc1CNCC(=O)O` [Example 125, (S)-((6-(2,2′-Dichloro-3′-(4-oxo-3-((((5-oxopyrrolidin-2-yl)methyl)amino)methyl)-4H-pyrido[1,2-a]pyrimidin-8-yl)-[1,1′-biphenyl]-3-yl)-2-methoxypyridin-3-yl)methyl)glycine], which IC50 is on record?
Answer: 0.7 nM

Question: Which IC50 does the source give for `COc1nc(-c2cccc(-c3cccc(-c4ccn5nc(CNC[C@@H]6CCC(=O)N6)cc5n4)c3Cl)c2Cl)ccc1CNC[C@@H]1CCC(=O)N1` [Example 82, (S)-5-((((6-(2,2′-Dichloro-3′-(2-(((((S)-5-oxopyrrolidin-2-yl)methyl)amino)methyl)pyrazolo[1,5-a]pyrimidin-5-yl)-[1,1′-biphenyl]-3-yl)-2-methoxypyridin-3-yl)methyl)amino)methyl)pyrrolidin-2-one] here?
Answer: 9.9 nM

Question: How did the IC50 turn out when `COc1nc(-c2cccc(-c3cccc(-c4ccn5c(=O)c(CN[C@H]6C[C@](C)(O)C6)c(OC)nc5c4)c3Cl)c2Cl)ccc1CNC[C@@H]1CCC(=O)N1` [Example 348, 8-(2,2′-Dichloro-3′-(6-methoxy-5-(((((S)-5-oxopyrrolidin-2-yl)methyl)amino)methyl)pyridin-2-yl)-[1,1′-biphenyl]-3-yl)-3-((((1r,3r)-3-hydroxy-3-methylcyclobutyl)amino)methyl)-2-methoxy-4H-pyrido[1,2-a]pyrimidin-4-one] was run?
Answer: 2.2 nM

Question: Which IC50 does the source give for `COc1nc(-c2cccc(-c3cccc(-c4cn5c(CNC[C@@H]6CCC(=O)N6)cnc5cn4)c3Cl)c2Cl)ccc1CNC[C@@H]1CCC(=O)N1` [Example 309, (S)-5-((((6-(2,2′-Dichloro-3′-(3-(((((S)-5-oxopyrrolidin-2-yl)methyl)amino)methyl)imidazo[1,2-a]pyrazin-6-yl)-[1,1′-biphenyl]-3-yl)-2-methoxypyridin-3-yl)methyl)amino)methyl)pyrrolidin-2-one] here?
Answer: 0.3 nM

Question: How did the IC50 turn out when `COc1nc(-c2cccc(-c3cccc(-c4cnc5cc(CNC[C@@H]6CCC(=O)N6)oc5c4)c3Cl)c2Cl)ccc1CNC[C@@H]1CCC(=O)N1` [Example 311, (S)-5-((((6-(2,2′-Dichloro-3′-(2-(((((S)-5-oxopyrrolidin-2-yl)methyl)amino)methyl)furo[3,2-b]pyridin-6-yl)-[1,1′-biphenyl]-3-yl)-2-methoxypyridin-3-yl)methyl)amino)methyl)pyrrolidin-2-one] was run?
Answer: 5 nM

Question: For `COc1nc(-c2cccc(-c3cccc(-c4ccn5c(=O)c(CN6CC7(C(=O)O)CCC6CC7)cnc5c4)c3Cl)c2Cl)ccc1CNC[C@@H]1CCC(=O)N1` [Example 127, (S)-2-((8-(2,2′-Dichloro-3′-(6-methoxy-5-((((5-oxopyrrolidin-2-yl)methyl)amino)methyl)pyridin-2-yl)-[1,1′-biphenyl]-3-yl)-4-oxo-4H-pyrido[1,2-a]pyrimidin-3-yl)methyl)-2-azabicyclo[2.2.2]octane-4-carboxylic acid], which IC50 is on record?
Answer: 0.3 nM

Question: How did the IC50 turn out when `O=C1CC[C@@H](CNCc2cnc3cc(-c4cccc(-c5cccc(-c6cnc7c(CNC[C@@H]8CCC(=O)N8)cnn7c6)c5Cl)c4Cl)ccn3c2=O)N1` [Example 381, 8-(2,2′-dichloro-3′-(3-(((((S)-5-oxopyrrolidin-2-yl)methyl)amino)methyl)pyrazolo[1,5-a]pyrimidin-6-yl)-[1,1′-biphenyl]-3-yl)-3-(((((S)-5-oxopyrrolidin-2-yl)methyl)amino)methyl)-4H-pyrido[1,2-a]pyrimidin-4-one] was run?
Answer: 5.9 nM

Question: For `COc1nc(-c2cccc(-c3cccc(-c4ccn5c(=O)c(CN6CCCC6CO)cnc5c4)c3Cl)c2Cl)ccc1CNC[C@@H]1CCC(=O)N1` (stereo partly drawn) [Example 153, 8-(2,2′-Dichloro-3′-(6-methoxy-5-(((((S)-5-oxopyrrolidin-2-yl)methyl)amino)methyl)pyridin-2-yl)-[1,1′-biphenyl]-3-yl)-3-((2-(hydroxymethyl)pyrrolidin-1-yl)methyl)-4H-pyrido[1,2-a]pyrimidin-4-one], which IC50 is on record?
Answer: 0.8 nM

Question: With `COc1nc(-c2cccc(-c3cccc(-c4ccn5c(=O)c(CNC(C)(C)CC(=O)O)cnc5c4)c3Cl)c2Cl)ccc1CNC[C@@H]1CCC(=O)N1` [Example 154, (S)-3-(((8-(2,2′-Dichloro-3′-(6-methoxy-5-((((5-oxopyrrolidin-2-yl)methyl)amino)-methyl)pyridin-2-yl)-[1,1′-biphenyl]-3-yl)-4-oxo-4H-pyrido[1,2-a]pyrimidin-3-yl)methyl)amino)-3-methylbutanoic acid] as the compound, how does the IC50 read?
Answer: 0.4 nM

Question: Which IC50 does the source give for `COc1nc(-c2cccc(-c3cccc(-c4ccc5c(n4)N(C)CCC5NC[C@@H]4CCC(=O)N4)c3Cl)c2Cl)ccc1CNC[C@@H]1CCC(=O)N1` (single isomer, unassigned) [Example 53] here?
Answer: 1.7 nM

Question: `COc1nc(-c2cccc(-c3cccc(-c4ccn5c(=O)c(CN6CCNC(=O)CC6)cnc5c4)c3Cl)c2Cl)ccc1CNC[C@@H]1CCC(=O)N1` [Example 327, (S)-8-(2,2′-Dichloro-3′-(6-methoxy-5-((((5-oxopyrrolidin-2-yl)methyl)-amino)methyl)-pyridin-2-yl)-[1,1′-biphenyl]-3-yl)-3-((5-oxo-1,4-diazepan-1-yl)methyl)-4H-pyrido[1,2-a]pyrimidin-4-one] was tested. Which IC50 did it give?
Answer: 0.1 nM
